According to patent US20020031509A1, “Pharmaceutical composition and method for its manufacture” (priority 1999, published 2002):

System: P. aeruginosa
Assay: Experiment 2 screening for antibiotic effect, P. aeruginosa
Format: cell-based, Pseudomonas aeruginosa
Details: 24 h post inoculation
Description: The second experiment consisted of a screening for antibiotic effect of individual and combined substances. The materials that were used were:
The method involved the use of a microtiter (ELISA) plate (12×8 wells, i.e 96 wells in total, obtained from NUNC) with serial dilutions of venoms and bacteria at two concentrations.
The incubation time was 24 hours. OD was monitored at 650 nm every hour the first 7-8 hours, and then at 20 hours and 24 hours post inoculation. Each well was given 200 μl of diluted venom plus bacteria.
Three-dimensional diagrams shown as FIG. 3 to 11 summarize the above results. Observe that in each diagram serge 1 (Z axis) is substance BF, serie 2 is NK, 3 is OH, 4 is BA, 5 is TA, 6 is OH+BA, 7 is OH+TA and serie 8 is reference antibiotic. On the X-axis 1-5 is concentration of substance: 500, 250, 125, 62.5 och 31.2 mikrog/ml for substances (N.B. OH+BA and OH+TA have the double concentrations, i.e. the concentration is 1000, 500, 250, 125 and 62.5 ), and 100, 50, 25, 12.5, 6.25 mikrog/ml for reference antibiotic. The name on the diagrams is the tested bacteria strain (initials only given) and time is 7 hours after incubation start at which the substance was added. The combined OH+BA and OH+TA were obtained by mixing the single venoms in the same proportions.

For `NC[C@H]1O[C@H](O[C@H]2[C@H](O)[C@@H](O[C@H]3O[C@H](CO)[C@@H](O)[C@H](N)[C@H]3O)[C@H](N)C[C@@H]2N)[C@H](O)[C@@H](O)[C@@H]1O` [Kanamycin], the antibacterial effect was “no effect”.
